Holding throughout (test): DTP human tumour cell line panel, 48 h
Test [1] relates to HOP-92.
The test system of test [2] is HCT-15.
Test [3] deals with SK-MEL-5.
Test [4] has as its system NCI-H522.
In test [5] the test system is K562.
The subject of test [6] is RPMI-8226.
Test [7] has as its system SK-OV-3.
Test [8] relates to Hs-578T.
Test [9] has as its system DU-145.
Test [10] concerns SNB-75.
The test system of test [11] is NCI/ADR-RES.
For test [12], the system named is CAKI-1.
The subject of test [13] is SW-620.
Test [14] has as its system SF-268.
Test [15] deals with OVCAR-3.
In test [16] the test system is LOX IMVI.
For test [17], the system named is OVCAR-5.
Test [18] deals with SNB-19.
Test [19] relates to IGROV-1.
Test [20] relates to KM12.

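Results reflect a 48-hour exposure of cells in 96-well plates to compound at five concentrations. Here, GI50 denotes the concentration required for 50% inhibition of growth.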 Calls of active or inactive are those of the source. Cut-off read from the data, not from the text of the source: active = GI50 up to about 1.1 µM and inactive = higher.

For the compound `N/N=C(\c1nc2ccc([N+](=O)[O-])cc2nc1O)C(O)c1ccc(Cl)c(Cl)c1` (stereo not given), the GI50 – broadly, the concentration at which growth is held to half of that of the control – is > 100 µM (inactive) in test [1]; above 100 µM in [2]; 61.8 µM (inactive) in test [3]; 13.9 µM (inactive) in test [4]; 96.6 µM (inactive) in [5]; 22.8 µM (inactive) in test [6]. For the same compound, the GI50 in test [7] is 88.1 µM (inactive); in [8], > 100 µM (inactive); in test [9], > 100 µM (inactive); in test [10] it was > 100 µM (inactive); in [11], > 100 µM (inactive); in test [12], > 100 µM (inactive). The GI50 was 56.9 µM (inactive) in test [13]; > 100 µM (inactive) in test [14]; > 100 µM (inactive) in [15]; 33.4 µM (inactive) in test [16]; > 100 µM (inactive) in test [17]; > 100 µM (inactive) in [18]. In addition, the GI50 in test [19] was > 100 µM (inactive); in [20] it was 28.3 µM (inactive).

With `COC(=O)C1=C(C)C=C(N2CCOCC2)C(C(=O)OC)C1c1ccccc1` (stereo not given), the GI50 in [1] is > 10 µM (inactive); in test [2], above 10 µM; in test [3] it was > 10 µM (inactive); in test [4] it was > 10 µM (inactive); in test [5], > 10 µM (inactive); in [6], > 10 µM (inactive). The GI50 in test [7], in test [8], in [9], in test [10], in [11] and in test [12] was > 10 µM (inactive) in each case. Moreover, the GI50 in test [13], in [14], in test [15], in [16], in test [17] and in test [18] was > 10 µM (inactive) in each case. Further, the GI50 in test [19] and in test [20] was > 10 µM (inactive) each time.

For the compound `[N-]=[N+]=Nc1ccc2c(c1)Sc1ccccc1N2CCCCCl`, the GI50 is 32.2 µM (inactive) in [1]; 81.3 µM in test [2]; 14.9 µM (inactive) in test [3]; 40.7 µM (inactive) in test [4]; 14 µM (inactive) in [5]; 23.3 µM (inactive) in [6]. In addition, the GI50 was > 100 µM (inactive) in test [7]; 35.8 µM (inactive) in [8]; > 100 µM (inactive) in test [9]; > 100 µM (inactive) in test [10]; > 100 µM (inactive) in test [11]; > 100 µM (inactive) in test [12]. For the same compound, the GI50 is 88.3 µM (inactive) in test [13]; 41.9 µM (inactive) in test [14]; 82.2 µM (inactive) in test [15]; 36.8 µM (inactive) in [16]; > 100 µM (inactive) in [17]; > 100 µM (inactive) in test [18]. The GI50 in test [19] is > 100 µM (inactive); in [20], 53.5 µM (inactive).

Regarding `N=c1oc2c(Br)cc(Br)cc2cc1C(=O)Nc1ccccn1`, the GI50 in test [1] is > 100 µM (inactive); in test [2], 38.9 µM; in [3] it was 63.1 µM (inactive); in [4] it was 47.2 µM (inactive); in [5], > 100 µM (inactive); in [6], 87.1 µM (inactive). In addition, the GI50 in test [7] is > 100 µM (inactive); in [8] it was 64.4 µM (inactive); in test [9] it was 81.5 µM (inactive); in [10] it was > 100 µM (inactive); in [11], 61.4 µM (inactive); in test [12], > 100 µM (inactive). Moreover, the GI50 in [13] was > 100 µM (inactive); in test [14], 78.9 µM (inactive); in test [15], 32.3 µM (inactive); in [16] it was > 100 µM (inactive); in test [17], > 100 µM (inactive); in [18], > 100 µM (inactive). For the same compound, the GI50 was > 100 µM (inactive) in test [19] and 56.5 µM (inactive) in test [20].

Take `N#CS/C(C(Cl)=C(Cl)Cl)=C(/Cl)[N+](=O)[O-]`: the GI50 in test [1] is 2.37 µM (inactive); in test [2] it was 2.32 µM; in test [3], 2.53 µM (inactive); in test [4], 1.04 µM (active); in test [5] it was 0.603 µM (active); in test [6], 0.9 µM (active). The GI50 in [7] was 17 µM (inactive); in test [8], 6.1 µM (inactive); in test [9], 13.8 µM (inactive); in test [10], 17.4 µM (inactive); in test [11], 3.88 µM (inactive); in test [12], 0.977 µM (active). Besides, the GI50 in test [13] was 1.78 µM (inactive); in test [14], 3.17 µM (inactive); in [15], 1.53 µM (inactive); in test [16], 0.904 µM (active); in [17] it was 1.7 µM (inactive); in test [18] it was 20.2 µM (inactive). The GI50 in test [19] was 2.32 µM (inactive); in test [20] it was 9.64 µM (inactive).

Take `CC(O)C1(O)C(O)CC(OC2c3cc4c(c(O)c3[C@@H]3C[C@@]2(C)OC32C=c3cc[nH]c3=N2)C(=O)c2cccc(O)c2C4=O)OC1C` (stereo not given in full): the GI50 in test [1] is 1.64 µM (inactive); in test [2], 2.03 µM; in [3] it was 3.06 µM (inactive); in test [4] it was 0.307 µM (active); in [5] it was 0.935 µM (active); in [6] it was 0.948 µM (active). In addition, the GI50 in test [7] is 1.75 µM (inactive); in test [8] it was 1.73 µM (inactive); in test [9] it was 1.15 µM (inactive); in test [10] it was 1.26 µM (inactive); in test [11], 3.44 µM (inactive); in test [12], 1.33 µM (inactive). In addition, the GI50 in test [13] was 0.809 µM (active); in test [14], 1.79 µM (inactive); in test [15], 1.08 µM (active); in [16] it was 0.555 µM (active); in test [17], 3.08 µM (inactive); in [18] it was 2.34 µM (inactive). The values for the GI50 in test [19] and in test [20] were 0.592 µM (active) and 1.07 µM (active), respectively.

Regarding `c1ccc2cc(OCC3CO3)c(OCC3CO3)cc2c1` (stereo not given), the GI50 in test [1] is 8.55 µM (inactive); in test [2], 4.63 µM; in test [3] it was 9.23 µM (inactive); in test [4], 1.87 µM (inactive); in test [5] it was 3.73 µM (inactive); in test [6] it was 1.92 µM (inactive). In addition, the GI50 in test [7] was 10.6 µM (inactive); in test [8], 3.89 µM (inactive); in [9], 3.85 µM (inactive); in test [10], 4.84 µM (inactive); in test [11], 4.05 µM (inactive); in [12], 4.09 µM (inactive). Further, the GI50 in test [13] was 1.91 µM (inactive); in [14] it was 0.891 µM (active); in test [15], 13.4 µM (inactive); in [16], 1.03 µM (active); in [17], 11.4 µM (inactive); in [18], 5.3 µM (inactive). In addition, the figures for the GI50 in test [19] and in test [20] were 1.3 µM (inactive) and 5.7 µM (inactive), respectively.

Turning to `CCCC(Sc1nc(N)nc2nc[nH]c12)C(=O)O` (stereo not given), the GI50 was > 100 µM (inactive) in test [1]; 91.6 µM in [2]; > 100 µM (inactive) in test [3]; 49 µM (inactive) in test [4]; 37.7 µM (inactive) in [5]; 35.2 µM (inactive) in test [6]. For the same compound, the GI50 in test [7] is 58.3 µM (inactive); in [8], > 100 µM (inactive); in [9], 57.9 µM (inactive); in test [10] it was > 100 µM (inactive); in test [11], 41.9 µM (inactive); in [12], 41 µM (inactive). Further, the GI50 in test [13] is > 100 µM (inactive); in test [14] it was 46.8 µM (inactive); in test [15] it was > 100 µM (inactive); in test [16], 34.5 µM (inactive); in [17], 63.1 µM (inactive); in test [18], > 100 µM (inactive). In addition, the GI50 in test [19] and in [20] was > 100 µM (inactive) in each case.

Regarding `Nc1nc(Sc2ccc([N+](=O)[O-])cn2)c2nc[nH]c2n1`, the GI50 was 3.6 µM (inactive) in test [1]; 9.55 µM in test [2]; 14.4 µM (inactive) in test [3]; 12.3 µM (inactive) in test [4]; 7.01 µM (inactive) in [5]; 14 µM (inactive) in test [6]. The GI50 in [7] is 3.95 µM (inactive); in test [8], 15.3 µM (inactive); in test [9], 3.32 µM (inactive); in test [10], 5.2 µM (inactive); in test [11] it was 3.78 µM (inactive); in test [12], 7.13 µM (inactive). In addition, the GI50 in [13] is 18.2 µM (inactive); in [14] it was 4.35 µM (inactive); in [15], 8.93 µM (inactive); in [16] it was 2.52 µM (inactive); in [17] it was 3.47 µM (inactive); in [18] it was 23.8 µM (inactive). Also, the GI50 in test [19] is 14.5 µM (inactive); in test [20], 7.38 µM (inactive).

Regarding `O=C(/C=C/c1ccc(O)c(O)c1)Oc1ccccc1`, the GI50 in test [1] was 14.9 µM (inactive); in test [2], 2.74 µM; in test [3], 9.95 µM (inactive); in test [4] it was 0.304 µM (active); in test [5], 4.27 µM (inactive); in test [6], 3.17 µM (inactive). The GI50 in test [7] is 45.6 µM (inactive); in test [8] it was 14.2 µM (inactive); in test [9], 13.2 µM (inactive); in test [10], 13.1 µM (inactive); in test [11] it was 11.2 µM (inactive); in [12], 5.85 µM (inactive). Further, the GI50 was 12.6 µM (inactive) in test [13]; 7.59 µM (inactive) in test [14]; 6.98 µM (inactive) in [15]; 4.9 µM (inactive) in test [16]; 28.7 µM (inactive) in test [17]; 20.4 µM (inactive) in test [18]. For the same compound, the GI50 in test [19] is 4.19 µM (inactive); in test [20] it was 9.29 µM (inactive).
